≈ marks a conversion by molar mass, not a printed value. Values belong to the molecule of their own block, whether it stands above or below them.
Legend:
Anopheles gambiae [1] = experiment: Insecticidal in Anopheles gambiae G3 assessed as lethal concentration fed with compound treated human blood at 150 microg/kg administered once; type: functional; details: dose 150 µg/kg
Aedes aegypti = experiment: Insecticidal in Aedes aegypti larvae measured after 48 hrs; type: functional
Culex pipiens = experiment: Insecticidal in Culex pipiens larvae measured after 48 hrs; type: functional
Anopheles stephensi = experiment: Insecticidal in Anopheles stephensi larvae measured after 48 hrs; type: functional
Anopheles gambiae [2] = experiment: Insecticidal in Anopheles gambiae G3 assessed as sublethal dose re-blood fed on human arm; type: functional
Huh-7 [3] = experiment: Antimalarial activity against liver stage Plasmodium berghei infected in human Huh-7 cells assessed as inhibition by bioluminescence assay; type: functional, cell-based
Plasmodium falciparum [4] = experiment: Antimalarial activity against asexual blood stage Plasmodium falciparum assessed as parasite growth inhibition incubated for 72 hrs by HRP2 - ELISA; type: functional, organism-based
[5] = Antimalarial activity against Plasmodium cynomolgi infected in rhesus macaque hepatocytes assessed as inhibition of liver-stage schizonts by Giemsa staining based microscopic analysis; type: functional, cell-based, Macaca mulatta; details: hepatocyte
Huh-7 [6] = experiment: Antiplasmodial activity against liver stage Plasmodium berghei infected in human Huh-7 cells assessed as inhibition of parasite infection incubated for 48 hrs by bioluminescence assay; type: functional, cell-based
Plasmodium falciparum [7] = experiment: Antiplasmodial activity against asexual blood stage Plasmodium falciparum 3d7 assessed as parasite growth inhibition incubated for 48 hrs by bioluminescence assay; type: functional, organism-based
Plasmodium falciparum [8] = experiment: Antimalarial activity against asexual blood stage mefloquine-resistant Plasmodium falciparum Dd2 assessed as parasite growth inhibition by SYBR Green staining based fluorescence analysis; type: functional, organism-based
Plasmodium falciparum [9] = experiment: Antimalarial activity against asexual blood stage chloroquine-resistant Plasmodium falciparum Dd2 assessed as parasite growth inhibition by SYBR Green staining based fluorescence analysis; type: functional, organism-based
Plasmodium vivax = experiment: Antimalarial activity against Plasmodium vivax assessed as inhibition of sporogony in Anopheles sp. mosquito fed with blood containing plasma isolated from compound treated parasite-infected human observed after 7 days; type: functional, organism-based
Plasmodium falciparum [10] = experiment: Antimalarial activity against Plasmodium falciparum late stage IV-V gametocytes assessed as parasite growth inhibition incubated for 48 hrs by BacTiterGlo assay; type: functional, organism-based
Plasmodium falciparum [11] = experiment: Antimalarial activity against asexual blood stage chloroquine-sensitive Plasmodium falciparum 3d7 assessed as parasite growth inhibition by SYBR Green staining based fluorescence analysis; type: functional, organism-based

Molecule: C=C(C)[C@H]1C(=O)c2c3c(cc4c5c(n1c24)C[C@@]1(C)C5CC[C@H]2[C@](C)(/C=C/C=C(\C)C(=O)NC(C)(C)C)[C@@H](O)CC[C@@]21C)C1=CC(C)(C)OC(C)(C)C1[C@@H]3O (some centres not stated)
LC50 (Anopheles gambiae [1]): 0.76 µg/mL (≈ 1.03 µM)

Molecule: CO[C@H]1C[C@H](O[C@H]2[C@H](C)O[C@@H](O[C@@H]3/C(C)=C/C[C@@H]4C[C@@H](C[C@]5(C=C[C@H](C)[C@@H](C(C)C)O5)O4)OC(=O)[C@@H]4C=C(C)[C@@H](O)[C@H]5OC/C(=C\C=C\[C@@H]3C)[C@]54O)C[C@@H]2OC)O[C@@H](C)[C@@H]1O [ABAMECTIN COMPONENT B1B]
LC50 (Aedes aegypti): 10.4 ppb
LC50 (Culex pipiens): 2.42 ppb
LC50 (Anopheles stephensi): 2.9 ppb

Molecule: CCN(Cc1ccc(Cl)nc1)/C(=C/[N+](=O)[O-])NC [NITENPYRAM]
LC25 (Anopheles gambiae [2]): 0.07865 µg/mL (≈ 0.291 µM)
LC50 (Anopheles gambiae [1]): 0.111 µg/mL (≈ 0.41 µM)

IC50 (Huh-7 [3]; Homo sapiens, Huh-7): 2.4 µM
Molecule: COc1cc(NC(C)CCCN)c2ncccc2c1 (configuration not stated) [PRIMAQUINE]

Molecule: IVERMECTIN
IC50 (Plasmodium falciparum [4]): 0.1 µM
IC50 [5]: 10.4 µM
IC50 (Huh-7 [6]): 2.1 µM
IC50 (Plasmodium falciparum [7]): 1.56 µM
IC50 (Huh-7 [3]; huh-7): 2.1 µM
IC50 (Plasmodium falciparum [8]): 1.92 µM
IC50 (Plasmodium falciparum [9]): 2.85 µM
IC50 (Plasmodium vivax): 0.00568 µg/mL
IC50 (Plasmodium falciparum [10]): 0.5 µM
IC50 (Plasmodium falciparum [11]): 1.56 µM

Reference: ChEMBL document CHEMBL5226321, “Ivermectin: A Promising Therapeutic for Fighting Malaria. Current Status and Perspective” (J Med Chem, 2021)
